Test results taken from US7601333B2, “Use of a tetrapeptide AcSDKP (SEQ ID No. 1) analog resistant to the angiotensin I converting enzyme for measuring glomerular filtration rate in a human or an animal and kit containing same” (Assistance Publique-Hopitaux de Paris, priority 2003, dated 2009).
Like-named read-outs stand apart in the source and are kept apart here. Residues, ends and D or L forms follow the SMILES beside them.

Assays:
human ACE [1] = experiment: In vitro degradation in the presence of human ACE; type: in vitro ADME; settings: human converting enzyme (human ACE), peptide 100 nM, human converting enzyme 5 mU, pH 7.5, read-out: percentage of peptide assayed relative to the control; for remaining at 10 min, 100 nM: T10 min; for remaining at 1 h, 100 nM: T60 min; for remaining at 2 h, 100 nM: T120 min; for remaining at 4 h, 100 nM: T240 min; for remaining at 24 h, 100 nM: T1440 min; for remaining at 0.5 h, 100 nM: T30 min
Experimental: (§1) The peptides (100 nM) were incubated with ground rat lung material (at 0.1 mg/ml) or human converting enzyme (5 mU final concentration) in the presence or absence of captopril (10 μM final concentration) in 0.1 M Tris/HCl buffer+0.3 mM NaCl, pH=7.5. A control comprising only the peptides in the presence of 0.1 M Tris/HCl buffer+0.3 mM NaCl, pH=7.5, was carried out.
(§2) A methanol extraction was carried out in order to stop the reaction. At each time, the concentration of the nondegraded peptide was measured by enzyme immunoassay.
(§3) The results were expressed as percentage of peptide assayed relative to the control for each sample time.

human ACE [2] = biological target: human ACE (Homo sapiens, UniProt P12821); experiment: In vitro degradation in the presence of human ACE; type: in vitro ADME
Experimental: as §1, §2, §3

ACE (rat lung) = tested on: T1, ACE (rat lung); experiment: In vitro degradation in the presence of rat lung ACE; type: in vitro ADME; settings: ground rat lung material (rat lung ACE), peptide 100 nM, ground rat lung material 0.1 mg/ml, pH 7.5, read-out: percentage of peptide assayed relative to the control; for remaining at 2 h, 100 nM: T120 min; for remaining at 0.5 h, 100 nM: T30 min; for remaining at 1 h, 100 nM: T60 min; for remaining at 4 h, 100 nM: T240 min
T1 construct: incubated with ground rat lung material (at 0.1 mg/ml); from tissue; host or cells: rat lung (ground material)
Experimental: as §1, §2, §3

rat lung ACE = biological target: T2, rat lung ACE (Rattus norvegicus, UniProt P47820); experiment: as above; type: in vitro ADME; settings: for percentage of peptide assayed relative to the control: peptide 100 nM, ground rat lung material 0.1 mg/ml, pH 7.5
T2 construct: incubated with ground rat lung material (at 0.1 mg/ml); from tissue; host or cells: rat lung (ground material)
T2 sequence (P47820 36-1313): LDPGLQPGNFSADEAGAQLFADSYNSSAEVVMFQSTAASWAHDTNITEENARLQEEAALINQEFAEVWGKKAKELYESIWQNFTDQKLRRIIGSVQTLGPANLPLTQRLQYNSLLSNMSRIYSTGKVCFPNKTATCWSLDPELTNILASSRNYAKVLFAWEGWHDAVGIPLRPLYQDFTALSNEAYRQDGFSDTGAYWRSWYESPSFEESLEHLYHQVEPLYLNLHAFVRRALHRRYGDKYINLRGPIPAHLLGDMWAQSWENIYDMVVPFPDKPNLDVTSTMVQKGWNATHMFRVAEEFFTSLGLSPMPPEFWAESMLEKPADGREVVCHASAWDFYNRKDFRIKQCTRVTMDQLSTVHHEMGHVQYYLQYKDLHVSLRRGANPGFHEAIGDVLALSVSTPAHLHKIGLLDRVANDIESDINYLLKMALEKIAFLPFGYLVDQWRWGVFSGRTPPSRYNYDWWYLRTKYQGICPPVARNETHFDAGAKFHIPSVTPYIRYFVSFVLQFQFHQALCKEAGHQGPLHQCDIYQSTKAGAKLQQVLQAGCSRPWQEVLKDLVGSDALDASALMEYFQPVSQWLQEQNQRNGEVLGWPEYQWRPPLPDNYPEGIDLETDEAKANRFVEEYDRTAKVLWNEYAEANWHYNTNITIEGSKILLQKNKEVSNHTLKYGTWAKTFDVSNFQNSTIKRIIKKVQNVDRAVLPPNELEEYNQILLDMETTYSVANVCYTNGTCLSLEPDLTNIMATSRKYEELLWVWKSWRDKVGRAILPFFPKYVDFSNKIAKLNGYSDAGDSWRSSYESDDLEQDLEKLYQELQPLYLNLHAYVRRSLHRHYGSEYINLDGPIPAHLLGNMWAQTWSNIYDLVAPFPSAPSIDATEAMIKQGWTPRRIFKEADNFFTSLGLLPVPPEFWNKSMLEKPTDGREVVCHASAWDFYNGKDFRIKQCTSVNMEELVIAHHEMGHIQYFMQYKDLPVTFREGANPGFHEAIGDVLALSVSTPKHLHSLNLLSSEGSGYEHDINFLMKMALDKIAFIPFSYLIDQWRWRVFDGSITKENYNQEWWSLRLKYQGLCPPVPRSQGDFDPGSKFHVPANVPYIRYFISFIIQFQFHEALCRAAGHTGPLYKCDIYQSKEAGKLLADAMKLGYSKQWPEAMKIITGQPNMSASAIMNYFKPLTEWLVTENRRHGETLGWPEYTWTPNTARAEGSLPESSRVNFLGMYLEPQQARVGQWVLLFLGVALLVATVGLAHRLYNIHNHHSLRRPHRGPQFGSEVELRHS
Experimental: as §1, §2, §3

in vivo = settings: male, Wistar, rat, iv
[3] = with captopril 10 μM, + captopril 10 μM

human ACE (Homo sapiens, UniProt P12821), sequence (P12821 30-1306): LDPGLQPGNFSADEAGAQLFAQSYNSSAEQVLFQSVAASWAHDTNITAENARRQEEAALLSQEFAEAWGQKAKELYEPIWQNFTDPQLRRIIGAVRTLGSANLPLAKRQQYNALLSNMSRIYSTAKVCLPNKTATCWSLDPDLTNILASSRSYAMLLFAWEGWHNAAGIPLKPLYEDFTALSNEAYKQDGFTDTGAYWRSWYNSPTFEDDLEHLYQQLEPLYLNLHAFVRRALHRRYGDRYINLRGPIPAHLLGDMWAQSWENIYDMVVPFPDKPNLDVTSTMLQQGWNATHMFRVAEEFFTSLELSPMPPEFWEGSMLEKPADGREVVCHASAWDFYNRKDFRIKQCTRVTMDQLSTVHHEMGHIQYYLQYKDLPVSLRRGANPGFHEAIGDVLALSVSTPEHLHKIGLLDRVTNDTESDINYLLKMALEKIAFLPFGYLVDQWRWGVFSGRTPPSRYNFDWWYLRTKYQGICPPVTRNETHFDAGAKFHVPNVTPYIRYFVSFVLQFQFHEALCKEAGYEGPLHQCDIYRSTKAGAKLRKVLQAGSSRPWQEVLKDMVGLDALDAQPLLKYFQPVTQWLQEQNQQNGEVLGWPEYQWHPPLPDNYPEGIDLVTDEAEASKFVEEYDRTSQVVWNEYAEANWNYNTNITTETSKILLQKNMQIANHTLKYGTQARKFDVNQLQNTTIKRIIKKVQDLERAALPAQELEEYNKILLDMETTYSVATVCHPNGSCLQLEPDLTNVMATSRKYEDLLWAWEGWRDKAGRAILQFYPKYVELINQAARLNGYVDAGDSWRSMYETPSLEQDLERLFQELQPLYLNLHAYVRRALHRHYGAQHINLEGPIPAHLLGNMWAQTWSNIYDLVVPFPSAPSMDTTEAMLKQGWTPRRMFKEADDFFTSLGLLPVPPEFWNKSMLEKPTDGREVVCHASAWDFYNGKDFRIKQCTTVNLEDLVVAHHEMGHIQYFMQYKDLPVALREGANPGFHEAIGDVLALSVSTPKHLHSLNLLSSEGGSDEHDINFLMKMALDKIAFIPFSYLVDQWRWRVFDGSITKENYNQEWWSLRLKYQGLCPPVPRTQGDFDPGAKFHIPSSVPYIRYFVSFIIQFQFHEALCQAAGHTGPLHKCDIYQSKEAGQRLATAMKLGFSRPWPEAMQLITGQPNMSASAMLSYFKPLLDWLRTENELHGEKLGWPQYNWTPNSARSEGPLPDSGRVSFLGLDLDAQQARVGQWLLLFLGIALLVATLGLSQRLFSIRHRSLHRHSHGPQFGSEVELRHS

Structure (SMILES): CC(=O)N[C@@H](CO)C(=O)N[C@@H](CC(=O)O)C(=O)N[C@@H](CCCCN)C(=O)N1CCC[C@H]1C(N)=O [AcSDKP-NH2, N-acetyl-Ser-Asp-Lys-Pro-NH2] (Ac-SDKP-NH2)
- remaining at 10 min, 100 nM (human ACE [1]; [3]): 90%
- remaining at 1 h, 100 nM (human ACE [1]; [3]): 78%
- remaining at 2 h, 100 nM (human ACE [1]; [3]): 95%
- remaining at 4 h, 100 nM (human ACE [1]; [3]): 104%
- remaining at 24 h, 100 nM (human ACE [1]; [3]): 117%
- remaining at 10 min, 100 nM (human ACE [1]; without captopril): 79%
- remaining at 0.5 h, 100 nM (human ACE [1]; without captopril): 100%
- remaining at 1 h, 100 nM (human ACE [1]; without captopril): 116%
- remaining at 2 h, 100 nM (human ACE [1]; without captopril): 116%
- remaining at 4 h, 100 nM (human ACE [1]; without captopril): 107%
- remaining at 24 h, 100 nM (human ACE [1]; without captopril): 86%
- degradation by ACE of human origin (human ACE [2]; in vitro): does not appear to be degraded
- concentrations found (human ACE [2]; in vitro, relative to control): 100±25%
- percentage of peptide assayed relative to the control (human ACE [2]; peptide 100 nM, human converting enzyme 5 mU, pH 7.5, T30 min, + captopril 10 μM): 162%
- remaining at 2 h, 100 nM (ACE (rat lung); [3]): 109%
- remaining at 0.5 h, 100 nM (ACE (rat lung); without captopril): 100%
- remaining at 1 h, 100 nM (ACE (rat lung); without captopril): 65%
- remaining at 2 h, 100 nM (ACE (rat lung); without captopril): 95%
- degradation by rat ACE (rat lung ACE; in vitro): does not appear to be degraded
- concentrations found (rat lung ACE; in vitro, relative to control): 100±25%
- percentage of peptide assayed relative to the control (rat lung ACE; T30 min, + captopril 10 μM): 125%
- percentage of peptide assayed relative to the control (rat lung ACE; T60 min, + captopril 10 μM): 65%
- percentage of peptide assayed relative to the control (rat lung ACE; T240 min, + captopril 10 μM): 136%
- percentage of peptide assayed relative to the control (rat lung ACE; T240 min, without captopril): 126%
- AUC0-inf (in vivo; plasma): 1490 ng·h/mL
- Vd (in vivo; plasma): 0.284 L/kg
- clearance (in vivo; plasma): 8.1 mL/min/kg
- half-life (in vivo; plasma): 23.1 min
- level at 5 min (in vivo; plasma): 3400 ng/mL
- level at 10 min (in vivo; plasma): 2680 ng/mL
- level at 0.25 h (in vivo; plasma): 1720 ng/mL
- level at 0.5 h (in vivo; plasma): 1010 ng/mL
- level at 1 h (in vivo; plasma): 450 ng/mL
- level at 2 h (in vivo; plasma): 82 ng/mL
- level at 4 h (in vivo; plasma): 3 ng/mL
- AUC0-inf (in vivo; plasma, 0.82 mg/kg): 1230 ng·h/mL
- Vd (in vivo; plasma, 0.82 mg/kg): 0.338 L/kg
- half-life (in vivo; plasma, 0.82 mg/kg): 23.3 min
- level at 5 min (in vivo; plasma, 0.82 mg/kg): 2830 ng/mL
- level at 10 min (in vivo; plasma, 0.82 mg/kg): 2330 ng/mL
- level at 3 h (in vivo; plasma, 0.82 mg/kg): 16 ng/mL
- level at 4 h (in vivo; plasma, 0.82 mg/kg): 3 ng/mL
- AUC0-inf (in vivo; plasma, 1 mg/kg): 1650 ng·h/mL
- Vd (in vivo; plasma, 1 mg/kg): 0.266 L/kg
- clearance (in vivo; plasma, 1 mg/kg): 8.1 mL/min/kg

Structure (SMILES): CC(=O)N[C@@H](CO)C(=O)N[C@@H](CC(=O)O)C(=O)N[C@@H](CCCCN)C(=O)N1CCC[C@H]1C(=O)O [AcSDKP, N-acetyl-Ser-Asp-Lys-Pro] (Ac-SDKP-OH; C-terminus assumed)
- remaining at 10 min, 100 nM (human ACE [1]; [3]): 90%
- remaining at 0.5 h, 100 nM (human ACE [1]; [3]): 100%
- remaining at 1 h, 100 nM (human ACE [1]; [3]): 85%
- remaining at 2 h, 100 nM (human ACE [1]; [3]): 85%
- remaining at 4 h, 100 nM (human ACE [1]; [3]): 100%
- remaining at 10 min, 100 nM (human ACE [1]; without captopril): 82%
- remaining at 0.5 h, 100 nM (human ACE [1]; without captopril): 75%
- remaining at 1 h, 100 nM (human ACE [1]; without captopril): 50%
- remaining at 2 h, 100 nM (human ACE [1]; without captopril): 25%
- remaining at 4 h, 100 nM (human ACE [1]; without captopril): 7%
- degradation by ACE of human origin (human ACE [2]; in vitro): degraded
- remaining at 1 h, 100 nM (ACE (rat lung); [3]): 111%
- remaining at 2 h, 100 nM (ACE (rat lung); [3]): 75%
- remaining at 4 h, 100 nM (ACE (rat lung); [3]): 89%
- remaining at 0.5 h, 100 nM (ACE (rat lung); without captopril): 28%
- remaining at 1 h, 100 nM (ACE (rat lung); without captopril): 9%
- remaining at 2 h, 100 nM (ACE (rat lung); without captopril): 5%
- remaining at 4 h, 100 nM (ACE (rat lung); without captopril): 5%
- degradation by rat ACE (rat lung ACE; in vitro): degraded
- percentage of peptide assayed relative to the control (rat lung ACE; T30 min, + captopril 10 μM): 129%
- Vd (in vivo; plasma): 0.353 L/kg
- level at time molar at 5 min (in vivo; plasma): 5.66 µM
- level at time molar at 10 min (in vivo; plasma): 4980 nM
- level at time molar at 0.25 h (in vivo; plasma): 4040 nM
- level at time molar at 1 h (in vivo; plasma): 1000 nM
- level at time molar at 2 h (in vivo; plasma): 218 nM
- level at time molar at 3 h (in vivo; plasma): 60 nM
- level at time molar at 4 h (in vivo; plasma): 22 nM
- level at time molar at 5 h (in vivo; plasma): 11 nM
- level at time molar at 5 min (in vivo; plasma, 1.2 mg/kg): 1.82 µM
- level at time molar at 10 min (in vivo; plasma, 1.2 mg/kg): 514 nM
- level at time molar at 0.25 h (in vivo; plasma, 1.2 mg/kg): 194 nM
- level at time molar at 0.5 h (in vivo; plasma, 1.2 mg/kg): 38 nM
- level at time molar at 1 h (in vivo; plasma, 1.2 mg/kg): 8.2 nM
- level at time molar at 2 h (in vivo; plasma, 1.2 mg/kg): 2.2 nM
- CL renal (in vivo; urine and plasma, 1 mg/kg): 11.2 mL/min/kg
- dose excreted (in vivo; urine, 1.2 mg/kg): 10.1%
